Measurements reported in publication PMC6225165, “Design and Synthesis of Novel Dehydroepiandrosterone Analogues as Potent Antiproliferative Agents” (Molecules : A Journal of Synthetic Chemistry and Natural …, 2018).

Columns and labels:
A549 = assay: MTT antiproliferative assay, A549; assay type: cell-based, human; details: for inhibition at 100 µM / % Growth Inhibition at 100 μM A549 / IC50: 48 h, MTT; for inhibition at 100 µM: read-out: % Growth Inhibition at 100 μM A549; for Selectivity Index A549: IC50 on normal cells (L02)/IC50 on tumour cells
Experimental: (§1) The antiproliferative activity of the title compounds against the panel of six different human cancer cell lines, viz. lung (A549), cervix (HeLa), liver (HepG-2), liver (BEL7402), colorectal (HCT116), and breast (MCF-7) cell lines, was evaluated using a standard MTT-based colorimetric assay. All cell lines were obtained from the Key Laboratory of Natural Resources and Functional Molecules of the Changbai Mountain (Yanbian University) and maintained in Dulbecco’s modified Eagle’s medium (DMEM) and RPMI Media 1640 (RPMI1640), supplemented with 10% foetal bovine serum (FBS) at 37 °C in a humidified atmosphere containing 5% CO2.
(§2) Cells were plated in 96-well plates at appropriate densities to ensure exponential growth throughout the experimental period (9 × 10^3 cells per well), and then allowed to adhere for 24 h. Cells were then treated for 48 h with each compound. After 48 h of incubation, 10 μL of MTT solution were added to each well to a final concentration of 2 mg·mL^−1. Plates were then incubated for a further 4 h. After incubation, the MTT solution was removed and 150 μL of DMSO were added to each well for coloration. The plates were shaken vigorously for 10 min at room temperature to ensure complete solubilisation. The optometric density (OD) was read on a microplate reader (EL × 800, BioTek, Highland Park, Winooski, VT, USA) at 492 nm, and the data were subsequently analysed. The percentage of cell growth inhibition was calculated from the following equation:Inhibitory rate (%) = [1 − (ODtreated − ODblank)/(ODcontrol − ODblank)] × 100.
(§3) To obtain the antiproliferative activity of compounds 2a–2w, the compounds were selected in the same way with four serial concentrations (1, 10, 50 and 100 μM) of those compounds. The optometric density (OD) reading was then used to calculate the IC50.

[1] = system: human normal liver (L02) cells; assay: MTT assay on normal cell line L02; assay type: cell-based; details: 48 h, MTT; for inhibition at 100 µM / % Growth Inhibition at 100 μM L02: normal cells; for inhibition at 100 µM: read-out: % Growth Inhibition at 100 μM L02; for IC50: normal cell line
HepG-2 = assay: MTT antiproliferative assay, HepG-2; assay type: cell-based, human; details: for inhibition at 100 µM / % Growth Inhibition at 100 μM HepG-2 / IC50: 48 h, MTT; for inhibition at 100 µM: read-out: % Growth Inhibition at 100 μM HepG-2; for Selectivity Index HepG-2: IC50 on normal cells (L02)/IC50 on tumour cells
Experimental: as §1, §2, §3

Hela = assay: MTT antiproliferative assay, Hela; assay type: cell-based, human; details: for inhibition at 100 µM / % Growth Inhibition at 100 μM Hela / IC50: 48 h, MTT; for inhibition at 100 µM: read-out: % Growth Inhibition at 100 μM Hela; for Selectivity Index Hela: IC50 on normal cells (L02)/IC50 on tumour cells
Experimental: as §1, §2, §3

BEL7402 = assay: MTT antiproliferative assay, BEL7402; assay type: cell-based, human; details: for inhibition at 100 µM / % Growth Inhibition at 100 μM BEL7402 / IC50: 48 h, MTT; for inhibition at 100 µM: read-out: % Growth Inhibition at 100 μM BEL7402; for Selectivity Index BEL7402: IC50 on normal cells (L02)/IC50 on tumour cells
Experimental: as §1, §2, §3

HCT116 = assay: MTT antiproliferative assay, HCT116; assay type: cell-based, human; details: for inhibition at 100 µM / % Growth Inhibition at 100 μM HCT116 / IC50: 48 h, MTT; for inhibition at 100 µM: read-out: % Growth Inhibition at 100 μM HCT116; for Selectivity Index HCT116: IC50 on normal cells (L02)/IC50 on tumour cells
Experimental: as §1, §2, §3

MCF-7 = assay: MTT antiproliferative assay, MCF-7; assay type: cell-based, human; details: for inhibition at 100 µM / % Growth Inhibition at 100 μM MCF-7 / IC50: 48 h, MTT; for inhibition at 100 µM: read-out: % Growth Inhibition at 100 μM MCF-7
Experimental: as §1, §2, §3

Row | SMILES | inhibition at 100 µM (A549; Homo sapiens, A549) [%] | inhibition at 100 µM ([1]; Homo sapiens, L02) [%] | inhibition at 100 µM (HepG-2; Homo sapiens, HepG2) [%] | inhibition at 100 µM (Hela; Homo sapiens) [%] | inhibition at 100 µM (BEL7402; Homo sapiens, Bel-7402) [%] | inhibition at 100 µM (HCT116; Homo sapiens, HCT-116) [%] | inhibition at 100 µM (MCF-7; Homo sapiens, MCF7) [%] | % Growth Inhibition at 100 μM A549 (A549) | % Growth Inhibition at 100 μM L02 [1] | % Growth Inhibition at 100 μM HepG-2 (HepG-2) | % Growth Inhibition at 100 μM Hela (Hela) | % Growth Inhibition at 100 μM BEL7402 (BEL7402) | % Growth Inhibition at 100 μM HCT116 (HCT116) | % Growth Inhibition at 100 μM MCF-7 (MCF-7) | IC50 (A549; Homo sapiens, A549) [µM] | IC50 ([1]; Homo sapiens, L02) [µM] | IC50 (HepG-2; Homo sapiens, HepG2) [µM] | IC50 (BEL7402; Homo sapiens, Bel-7402) [µM] | IC50 (HCT116; Homo sapiens, HCT-116) [µM] | IC50 (MCF-7; Homo sapiens, MCF7) [µM] | also measured
1 | CC12CCC3C(CC=C4CC(O)CCC43C)C1C/C(=C\c1cn(-c3ccccc3)nn1)C2=O (stereo not shown) [Compound 2a, (E)-3-hydroxy-10,13-dimethyl-16-((1-phenyl-1H-1,2,3-triazol-4-yl)methylene)-1,3,4,7,8,9,10,11,12,13,15,16-dodecahydro-2H-cyclopenta[a]phenanthren-17(14H)-one] | 30.3 | 22.3 | 10.2 | < 5 | 12.9 | 11.1 | < 5 | – | – | – | – | – | – | – | – | – | – | – | – | – | –
2 | CC12CCC3C(CC=C4CC(O)CCC43C)C1C/C(=C\c1cn(-c3ccccc3F)nn1)C2=O (stereo not shown) [Compound 2b, (E)-16-((1-(2-fluorophenyl)-1H-1,2,3-triazol-4-yl)methylene)-3-hydroxy-10,13-dimethyl-1,3,4,7,8,9,10,11,12,13,15,16-dodecahydro-2H-cyclopenta[a]phenan-thren-17(14H)-one] | – | – | – | – | – | – | – | NA (NA: antiproliferative activity <5%) | NA (NA: antiproliferative activity <5%) | NA (NA: antiproliferative activity <5%) | NA (NA: antiproliferative activity <5%) | NA (NA: antiproliferative activity <5%) | NA (NA: antiproliferative activity <5%) | NA (NA: antiproliferative activity <5%) | – | – | – | – | – | – | –
3 | CC12CCC3C(CC=C4CC(O)CCC43C)C1C/C(=C\c1cn(-c3cccc(F)c3)nn1)C2=O (stereo not shown) [Compound 2c, (E)-16-((1-(3-fluorophenyl)-1H-1,2,3-triazol-4-yl)methylene)-3-hydroxy-10,13-dimethyl-1,3,4,7,8,9,10,11,12,13,15,16-dodecahydro-2H-cyclopenta[a]phenanthren-17(14H)-one] | 60.5 | 79.3 | 78.8 | 55.2 | 66.7 | 78.3 | 31.2 | – | – | – | – | – | – | – | 51.6 | 83.4 | 11.1 | 68.9 | 26.3 | > 100 | Selectivity Index A549 (A549): 1.61; Selectivity Index HepG-2 (HepG-2): 7.53; IC50 (Hela; Homo sapiens, HeLa): 83.5 µM; Selectivity Index Hela (Hela): 0.99; Selectivity Index BEL7402 (BEL7402): 1.21; Selectivity Index HCT116 (HCT116): 3.17
4 | CC12CCC3C(CC=C4CC(O)CCC43C)C1C/C(=C\c1cn(-c3ccc(F)cc3)nn1)C2=O (stereo not shown) [Compound 2d, (E)-16-((1-(4-fluorophenyl)-1H-1,2,3-triazol-4-yl)methylene)-3-hydroxy-10,13-dimethyl-1,3,4,7,8,9,10,11,12,13,15,16-dodecahydro-2H-cyclopenta[a]phenanthren-17(14H)-one] | 68.8 | 80.3 | 65.6 | 78.9 | 60.4 | 84.9 | 83 | – | – | – | – | – | – | – | 15.8 | 27.8 | 36.2 | 40.4 | 33.2 | 17.8 | Selectivity Index A549 (A549): 1.76; Selectivity Index HepG-2 (HepG-2): 0.77; IC50 (Hela; Homo sapiens, HeLa): 13.2 µM; Selectivity Index Hela (Hela): 2.10; Selectivity Index BEL7402 (BEL7402): 0.69; Selectivity Index HCT116 (HCT116): 0.83; Selectivity Index MCF-7 (MCF-7; IC50 on normal cells (L02)/IC50 on tumour cells): 1.56
5 | CC12CCC3C(CC=C4CC(O)CCC43C)C1C/C(=C\c1cn(-c3ccccc3Cl)nn1)C2=O (stereo not shown) [Compound 2e, (E)-16-((1-(2-chlorophenyl)-1H-1,2,3-triazol-4-yl)methylene)-3-hydroxy-10,13-di-methyl-1,3,4,7,8,9,10,11,12,13,15,16-dodecahydro-2H-cyclopenta[a]phenan-thren-17(14H)-one] | – | – | – | – | – | – | – | NA (NA: antiproliferative activity <5%) | 12.4% | NA (NA: antiproliferative activity <5%) | 32.8% | 10.5% | 23.0% | 37.3% | – | – | – | – | – | – | –
6 | CC12CCC3C(CC=C4CC(O)CCC43C)C1C/C(=C\c1cn(-c3cccc(Cl)c3)nn1)C2=O (stereo not shown) [Compound 2f, (E)-16-((1-(3-chlorophenyl)-1H-1,2,3-triazol-4-yl)methylene)-3-hydroxy-10,13-dimethyl-1,3,4,7,8,9,10,11,12,13,15,16-dodecahydro-2H-cyclopenta[a]phenanthren-17(14H)-one] | 11.9 | 60.2 | 51.7 | 9.2 | 36.5 | 41.9 | 41 | – | – | – | – | – | – | – | – | – | – | – | – | – | –
7 | CC12CCC3C(CC=C4CC(O)CCC43C)C1C/C(=C\c1cn(-c3ccc(Cl)cc3)nn1)C2=O (stereo not shown) [Compound 2g, (E)-16-((1-(4-chlorophenyl)-1H-1,2,3-triazol-4-yl)methylene)-3-hydroxy-10,13-dimethyl-1,3,4,7,8,9,10,11,12,13,15,16-dodecahydro-2H-cyclopenta[a]phenanthren-17(14H)-one] | 69.8 | 40.9 | 32.5 | 62.8 | 66.9 | 78.7 | 39.9 | – | – | – | – | – | – | – | 37.4 | > 100 | > 100 | 58.2 | 23.4 | > 100 | IC50 (Hela; Homo sapiens, HeLa): 57.3 µM
8 | CC12CCC3C(CC=C4CC(O)CCC43C)C1C/C(=C\c1cn(-c3ccc(Cl)c(Cl)c3)nn1)C2=O (stereo not shown) [Compound 2h, (E)-16-((1-(3,4-dichlorophenyl)-1H-1,2,3-triazol-4-yl)methylene)-3-hydroxy-10,13-dimethyl-1,3,4,7,8,9,10,11,12,13,15,16-dodecahydro-2H-cyclopenta[a]phenan-thren-17(14H)-one] | – | – | – | – | – | – | – | 70.7% | 67.9% | 48.2% | 68.7% | 70.1% | 74.4% | 80.0% | – | – | – | – | – | – | IC50 (A549): 17.5 µM; IC50 [1]: 26.4 µM; IC50 (HepG-2): > 100 µM; IC50 (Hela): 15.1 µM; IC50 (BEL7402): 16 µM; IC50 (HCT116): 11.9 µM; IC50 (MCF-7): 14.9 µM
9 | CC12CCC3C(CC=C4CC(O)CCC43C)C1C/C(=C\c1cn(-c3ccccc3Br)nn1)C2=O (stereo not shown) [Compound 2i, (E)-16-((1-(2-bromophenyl)-1H-1,2,3-triazol-4-yl)methylene)-3-hydroxy-10,13-dimethyl-1,3,4,7,8,9,10,11,12,13,15,16-dodecahydro-2H-cyclopenta[a]phenan-thren-17(14H)-one] | – | – | – | – | – | – | – | NA (NA: antiproliferative activity <5%) | NA (NA: antiproliferative activity <5%) | NA (NA: antiproliferative activity <5%) | 17.0% | NA (NA: antiproliferative activity <5%) | 20.2% | NA (NA: antiproliferative activity <5%) | – | – | – | – | – | – | –
10 | O=c1[nH]cc(F)c(=O)[nH]1 [Compound 5-FU, 5-fluorouracil, reference compound] | – | – | – | – | – | – | – | – | – | – | – | – | – | – | – | – | 10.6 | 21.3 | 24.8 | 28.1 | –
